Test results as given in article PMC11039692, “SRY-Box transcription factor 9 triggers YAP nuclear entry via direct interaction in tumors” (Signal Transduction and Targeted Therapy, 2024).

What was measured:
YAP [1] = target: T1, YAP (Homo sapiens, UniProt P46937); experiment: MST binding to YAP protein; parameters: made in house; host or cells: Escherichia coli; details: 50 mM Tris-HCl pH 7.4, 150 mM NaCl, 0.05% Tween-20, effect of D125A mutation on S-A1 binding
Procedure: (§1) His-tagged YAP and the SOX9-HMG domain purified from Escherichia coli were labeled with 25 nM RED-tris-NTA 2nd Generation dye at room temperature for 10 min. Then, the labeled protein was incubated with a serially diluted peptide or protein for 10 min at room temperature. MST buffer containing 50 mM Tris-HCl [pH 7.4], 150 mM NaCl, and 0.05% Tween-20 was used in all measurements. The solution was centrifuged for 10 min at 4 °C and 15,000 g, and the supernatant was transferred to a fresh tube. The sample was loaded into the capillaries and measured at 40% LED/excitation power and medium MST power. The KD was determined in MO. Affinity Analysis using the KD fit.

YAP [2] = target: T1, YAP; experiment: YAP nuclear level / nuclear translocation in Huh-7 cells; format: cell-based; details: for nuclear transport of YAP: HCC cells (Huh-7), PRMT1 inhibitor MS023 200 nM or siPRMT1
Procedure: Huh-7 cells were infected with lenti-YAP-linker-EGFP-rtTA3 followed by infection with lenti-SOX9-linker-mCherry-rtTA3, with selection using puromycin (Sigma-Aldrich, P9620) or Blasticidin S hydrochloride (Yeasen,60218ES10), and then plated on confocal 6-well plates (Biosharp, BS-15-GJM) at a suitable concentration. Approximately 1 h after doxycycline (DOX, Yeasen, 60204ES03) treatment, live cell images were captured every 30 min using an Olympus SpinSR10 microscope at ×200 magnification. For the PLA, the pretreated cell samples were fixed after DOX induction for 12 h. DOX was administered to the infected Huh-7 cells at a concentration of 1 μg/mL.
(§2) Cytoplasmic and nuclear fractionation was accessed by the Minute^TM Cytoplasmic and Nuclear Fractionation kit (Invent, SC-003) following the manufacturer’s recommendations with some modifications made by us to optimize the protocol. Cells were resuspended in pre-chilled cytoplasm extraction buffer and incubated on ice for 5 min. After a thorough one-minute vortex, the supernatant (cytoplasmic proteins) was obtained by centrifuging at 12,000 rpm for 5 min. To eliminate cytoplasmic proteins, the pellet was washed with pre-chilled PBS, and subsequently resuspended in a nuclear extraction buffer. The sample was vortexed thoroughly for 3 min in an ice bath, and these steps were repeated four times. The precipitate was discarded, and the supernatant (nuclear proteins) was saved for further analysis.

YAP-TEAD = experiment: 8×GTIIC YAP-TEAD luciferase reporter assay; format: cell-based
Procedure: Huh-7 cells were transfected with a vector expressing full-length or truncated SOX9 together with a TEAD4-related reporter plasmid, 8×GTIIC (RIKEN, Japan). The pRL-SV40 (Promega, E2261) vector was transfected into all the treated cells and was used to normalize the data. Luciferase reporter gene assays were assayed with the Dual-Luciferase Reporter Assay System (Promega, E2920). All experiments were replicated a minimum of three times.

Huh-7 cells = experiment: TEAD activity and oncogenic properties of Huh-7 cells; format: cell-based; details: Huh-7 cells treated with Lenti-YAP and siPrmt1 simultaneously
YAP-R124me2a = YAP-R124me2a level in cells (immunoblot); format: cell-based; details: Huh-7 cells co-transfected with V5-YAP and siPRMT1
Procedure: (§3) For protein preparation, cells were lysed in 2× sodium dodecyl sulfate (SDS) protein lysis buffer (4% SDS, 20% glycerol, 100 mM Tris-Cl [pH 6.8], with PMSF or other protease inhibitors). For co-immunoprecipitation (Co-IP), samples were prepared using Pierce^TM IP lysis buffer (Thermo Fisher Scientific, 87787) following the manufacturer's recommendations. Lysates were centrifuged at 12,000 rpm for 10 min, and the supernatants were collected. The protein concentration was determined using a BCA kit (Beyotime, P0010, Shanghai, China). For Co-IP samples, 1 mg of protein was precipitated with 20 μL of agarose-conjugated antibodies. For immunoblotting, protein samples were separated using SDS-polyacrylamide gel electrophoresis and then transferred onto nitrocellulose membranes (Millipore, HAHY00010).

YAP-SOX9 interaction [3] = experiment: Co-IP of SOX9-YAP interaction in cells; format: cell-based; details: V5-IP
Procedure: as §3

SOX9 = SOX9 nuclear level in Huh-7 cells; format: cell-based; details: CDZ 5 nM, 24 h
Procedure: as §2

YAP-SOX9 interaction [4] = experiment: PLA of SOX9-YAP interaction in cells; format: cell-based; details: HCC cells (DOX-induced Huh-7), peptides 10 μM, 24 h
Procedure: The pretreated cell samples were grown on coverslips, fixed in 4% paraformaldehyde (PFA) for 15 minutes, and then washed two times in PBS. Following a 1-hour incubation at 37 °C with blocking solution® (Sigma-Aldrich, DUO82007), the cells were incubated with primary antibodies at optimal concentrations overnight at 4 °C. After three washes in Buffer A® (Sigma-Aldrich, DUO82049), the samples were incubated with a 1:5 dilution of PLUS® and MINUS® Duolink In Situ PLA Probe (Sigma-Aldrich, DUO92002 and DUO92004) for 1 hour at 37 °C. Three additional washes in Buffer A® preceded a 30-minute incubation with 1 unit/μL of T4 DNA ligase diluted in ligase buffer (1:5, Sigma-Aldrich, DUO92013) at 37 °C. Subsequently, cells were washed three times again in Buffer A® and treated with 5 units/μL of DNA polymerase in diluted polymerase buffer (1:5, Sigma-Aldrich, DUO92013) for 100 min at 37 °C. Finally, cells were washed twice for 10 minutes each in 1× Buffer B® (Sigma-Aldrich, DUO82049), then quickly washed for 1 min in 0.01× Buffer B®. The slides were mounted using DUOlink in situ mounting medium containing DAPI, and the images were captured using a Leica TCS SP8 confocal microscope.

Huh-7 xenograft = experiment: Huh-7 subcutaneous xenograft model; format: in vivo, BALB/c nude mice
Procedure: (§4) Huh-7 cells (1×106) or Huh-7 cells infected with different viruses were injected subcutaneously into the right flank of male athymic BALB/c nude mice (5 weeks old). Tumor volumes were measured and analyzed using the equation: volume = π/6×length×(width)2.Once the average tumor volume reached approximately 60 mm3, the mice were randomly divided into five groups (eight mice per group) and treated with intratumorally injections of Pep-S-A1, Pep-D125A, or saline twice weekly. For the orthotopic HCC model, 1×10^6 Huh-7 cells expressing luciferase were injected subcutaneously into the right flank of BALB/c nude mice to establish tumor xenografts. The tumor nodules derived from xenograft model and then were divided into 1 mm3 pieces and subsequently implanted into the left lobe of the livers of 5-week-old male BALB/c nude mice to mimic primary HCC. The mice were randomly separated into two groups (eight animals per group) according to the bioluminescence 3 days after implantation. Pep-S-A1 or Pep-D125A was then injected via the tail vein every 5 days. The mice were regularly monitored using a luminal imaging system (Caliper) once each week and killed 2 weeks post tumor fragments transplanted.

SOX9^KO Huh-7 cells = experiment: Proliferation of SOX9KO Huh-7 cells; format: cell-based; details: SOX9^KO Huh-7 cells treated with Pep-peptides
CTGF, CYR61 and AREG = experiment: qPCR of YAP-target genes in cells; format: cell-based; details: Huh-7 cells, 10 μM
Procedure: (§5) Total RNA was isolated from cells or tissues with RNAiso Plus Reagent (TaKaRa, 9108). SuperScript Ⅲ reverse transcriptase (Invitrogen,18080093) was employed to synthesize first-strand cDNA. Real-time PCR was performed in an ABI Step One Real-time Detection System (Life Technologies) using SYBR Green (Takara, RR420A). The primer sequences are listed in supplementary Table 2.

[5] = test system: luciferase-expressing Huh-7 tumors; experiment: Orthotopic HCC model; format: in vivo, BALB/c nude mice; details: 2-week delivery
Procedure: as §4

Hep3B cells = experiment: Proliferation of HCC cells; format: cell-based
HCC cells = experiment: Proliferation of Huh-7 / HCC cells; format: cell-based
ovarian cancer = details: cited from earlier work
From the text: (§6) The formation of YAP-partner complexes under certain pathological conditions makes YAP an ideal drug target.[44]–[46] […] In light of this, impeding ...

YAP-TEAD interaction = details: cited from earlier work
From the text: as §6

PLC cells = experiment: YAP-induced gene expression and malignant features of PLC cells; format: cell-based; details: PLC cells infected with lenti-YAP; siRNA 20 nmol/L
Procedure: as §5

SOX9-HMG domain = target: T2, SOX9-HMG domain (Homo sapiens, UniProt P48436); experiment: MST binding to SOX9-HMG domain; details: 50 mM Tris-HCl pH 7.4, 150 mM NaCl, 0.05% Tween-20, effect of R124K mutation on YAP peptide (aa 115–135)
T2 construct: made in house; host or cells: Escherichia coli
T2 sequence (P48436 98-181): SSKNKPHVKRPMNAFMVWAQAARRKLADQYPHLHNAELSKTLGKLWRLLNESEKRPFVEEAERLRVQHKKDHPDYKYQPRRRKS
Procedure: as §1

T1 sequence (P46937 whole entry, the tested form may be a part): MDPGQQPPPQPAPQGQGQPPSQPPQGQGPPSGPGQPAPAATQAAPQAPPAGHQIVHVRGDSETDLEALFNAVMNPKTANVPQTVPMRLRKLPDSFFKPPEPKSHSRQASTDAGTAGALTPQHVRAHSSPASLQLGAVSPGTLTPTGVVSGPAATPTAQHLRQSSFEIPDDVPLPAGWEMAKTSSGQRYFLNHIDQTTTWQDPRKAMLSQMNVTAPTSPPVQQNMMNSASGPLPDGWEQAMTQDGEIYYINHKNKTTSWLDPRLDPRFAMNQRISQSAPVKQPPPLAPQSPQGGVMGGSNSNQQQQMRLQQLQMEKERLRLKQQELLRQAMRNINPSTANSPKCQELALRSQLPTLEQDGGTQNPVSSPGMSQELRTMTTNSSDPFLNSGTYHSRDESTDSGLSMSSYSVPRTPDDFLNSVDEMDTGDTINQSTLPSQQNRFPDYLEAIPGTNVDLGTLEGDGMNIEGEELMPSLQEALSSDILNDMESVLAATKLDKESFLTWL

With “S-A1-D125A: S-A1 peptide with D125A mutation (AFMVWAQAARRKLAAQ)” the “binding to YAP (MST)” value (YAP [1]) was “abolished this binding”.
In the case of `CC(C)Oc1ccc(-c2c[nH]cc2CN(C)CCN)cc1` [MS023], the “nuclear transport of YAP” value (YAP [2]; fractionation and immunoblot) was “remarkedly blocked the nuclear transport of YAP in HCC cells”.
For “siPRMT1: siRNA GAGUUCACACGCUGCCACAtt (guide GAGUUCACACGCUGCCACATT; chemistry not given here)”, the “nuclear transport of YAP” value (YAP [2]; fractionation and immunoblot) was “remarkedly blocked the nuclear transport of YAP in HCC cells”, the “YAP activity (8×GTIIC reporter)” value (YAP-TEAD; Huh-7 cells transfected with siPRMT1) was “decreased YAP activity” and the “TEAD activity and oncogenic properties triggered by YAP” value (Huh-7 cells) was “significantly reversed the elevated TEAD activity and oncogenic properties of Huh-7 cells triggered by YAP”. For the same compound, the YAP-R124me2a level (YAP-R124me2a) was “decreased the YAP-R124me2a level” and the YAP-SOX9 interaction (YAP-SOX9 interaction [3]; Huh-7 cells co-transfected with V5-YAP and siPRMT1) was “reduced YAP-SOX9 interaction”.
For `Clc1ccc(C(c2ccc(Cl)cc2)n2cc[n+](CC(OCc3ccc(Cl)cc3Cl)c3ccc(Cl)cc3Cl)c2)cc1` (centres unmarked) [CDZ, calmidazolium chloride], the “nuclear translocation of YAP” value (YAP [2]; CDZ 5 nM, 24 h, Huh-7 cells transfected with V5-YAP, fractionation and immunoblot) was “significantly inhibited nuclear translocation of YAP”, the “nuclear level of SOX9” value (SOX9) was “decreased the nuclear level of SOX9” and the “transactivation of the YAP-TEAD reporter” value (YAP-TEAD; CDZ 5 nM, 24 h, Huh-7 cells overexpressing YAP or YAP^S127A, 8×GTIIC reporter) was “significantly inhibited nuclear translocation of YAP and the transactivation of the YAP-TEAD reporter”.
For “Pep-S-A1: S-A1 linked to a cell-penetrating peptide (Pep) via a di-glycine linker (HLYVSPWGGAFMVWAQAARRKLADQ)”, the “disruption of YAP-SOX9 interaction (PLA)” value (YAP-SOX9 interaction [4]) was “disrupted the YAP-SOX9 interaction in HCC cells in a dose-dependent manner”, the “nuclear YAP levels” value (YAP [2]; Huh-7 cells, live cell-imaging) was “reduced nuclear YAP levels” and the “YAP nuclear staining in tumor tissues” value (Huh-7 xenograft; Huh-7 xenograft, IHC, 8 mg/kg) was “reduced YAP nuclear staining”. The “downstream gene transcription in tumor tissues” value (Huh-7 xenograft; Huh-7 xenograft, qPCR of CTGF, CYR61 and AREG) was “reduced YAP nuclear staining and downstream gene transcription in the tumor tissues”, the “tumor growth (Huh-7 subcutaneous xenograft)” value (Huh-7 xenograft; nude mice, intratumoral injection, twice weekly (day 1 and day 4), eight mice per group) was “dose-dependently suppressed tumor growth” and the “proliferation of SOX9KO Huh-7 cells” value (SOX9^KO Huh-7 cells) was “had no effect on SOX9^KO Huh-7 cells”. For the same compound, the YAP-target gene expression (CTGF, CYR61 and AREG) was “inhibited YAP-target gene expression”, the YAP-TEAD activity (YAP-TEAD; Huh-7 cells, 8×GTIIC reporter, 10 μM) was “suppressed YAP-TEAD activity” and the “YAP nuclear aggregation in tumor tissues” value ([5]; orthotopic HCC, IHC, tail vein every 5 days) was “notably inhibited YAP nuclear aggregation”. The “downstream gene expression in tumor tissues” value ([5]; orthotopic HCC, qPCR of CTGF, CYR61 and AREG) was “notably inhibited YAP nuclear aggregation and downstream gene expression in the tumor tissues”, the emitted bioluminescence ([5]; orthotopic HCC, tail vein every 5 days, compared with Pep-D125A, eight animals per group) was “significantly reduced the emitted bioluminescence” and the “tumor growth (orthotopic HCC)” value ([5]; tail vein every 5 days, compared with Pep-D125A, eight animals per group) was “significantly reduced the emitted bioluminescence and tumor growth compared with Pep-D125A”. For the same compound, the “disruption of YAP-SOX9 interaction (Co-IP)” value (YAP-SOX9 interaction [3]; HCC cells (Huh-7), peptides at indicated concentrations for 24 h) was “disrupted the YAP-SOX9 interaction in HCC cells in a dose-dependent manner”, the “proliferation of Hep3B cells” value (Hep3B cells) was “inhibited the proliferation of Hep3B cells” and the HCC cell proliferation (HCC cells) was “inhibited HCC cell proliferation”.
In the case of verteporfin, the “ovarian cancer growth in mice” value (ovarian cancer) is given as “suppressed ovarian cancer growth in mice” and the YAP-TEAD interaction (YAP-TEAD interaction) is given as “blocked the YAP-TEAD interaction”.
For “siSOX9: siRNA CCACCUUCACCUACAUGAAtt (guide CCACCUUCACCUACAUGAATT; chemistry not given here)”, the “YAP-induced gene expression and malignant features” value (PLC cells) was “notably attenuate the YAP-induced gene expression and malignant features of PLC cells”.
In the case of “R124K: YAP peptide (aa 115–135) with R124K mutation (AGALTPQHVKAHSSPASLQLG; UniProt P46937 115-135, looked up, variant R124K)”, the “binding to SOX9-HMG (MST)” value (SOX9-HMG domain) was “abolished”.
